Laboratory results: patent US6403626B1, “Benzimidazole derivatives” (Synaptic Pharmaceutical Corporation, priority 1994, dated 2002)
Where a name gives a salt, the structure may show the parent alone. Read-outs that look alike come from different tables or passages of the source.

How the values were obtained:
[1] = biological target: T1, α1B Human Adrenergic Receptor (Homo sapiens, UniProt P35368); assay: Equilibrium competition binding, [3H] prazosin, membranes of transfected LM(tk-) cells; details: cloned human receptor, [3H] prazosin
T1 construct: The entire coding region of α1B(1563 bp); expressed in transfected cells; host or cells: LM(tk-) cells
T1 sequence (P35368 1-520): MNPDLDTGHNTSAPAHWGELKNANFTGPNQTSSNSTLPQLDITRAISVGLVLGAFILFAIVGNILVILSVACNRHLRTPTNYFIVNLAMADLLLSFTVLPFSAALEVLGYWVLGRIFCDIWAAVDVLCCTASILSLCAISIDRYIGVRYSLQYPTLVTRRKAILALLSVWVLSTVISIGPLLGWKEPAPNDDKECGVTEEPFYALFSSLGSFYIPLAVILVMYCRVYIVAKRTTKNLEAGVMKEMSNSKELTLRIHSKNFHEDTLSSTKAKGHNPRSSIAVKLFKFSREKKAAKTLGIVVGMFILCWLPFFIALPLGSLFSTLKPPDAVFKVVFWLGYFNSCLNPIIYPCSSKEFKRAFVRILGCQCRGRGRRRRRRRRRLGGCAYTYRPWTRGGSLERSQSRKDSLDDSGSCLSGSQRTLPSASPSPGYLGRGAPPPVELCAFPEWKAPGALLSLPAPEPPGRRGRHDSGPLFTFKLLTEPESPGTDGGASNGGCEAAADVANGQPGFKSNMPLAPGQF
Method: (§1) Binding and functional assays were performed using stably transfected human alpha adrenergic receptors. Equilibrium competition binding assays were performed with membrane preparations from cultured LM(tk-) cells stably transfected with the cloned human adrenoceptor subtypes except for α2b, which was expressed in Y-1 cells, using [^3H] prazosin for α1 receptors and [^3H] rauwolscine for α2 receptors.
(§2) Transfected cells from culture flasks were scraped into 5 ml of 5 mM Tris-HCl, 5 mM EDTA, pH 7.5, and lysed by sonication. The cell lysates were centrifuged at 1000 rpm for 5 min at 4° C., and the supernatant was centrifuged at 30,000×g for 20 min at 4° C. The pellet was suspended in 50 mM Tris-HCl, 1 mM MgCl2, and 0.1% ascorbic acid at pH 7.5. Binding of α2 antagonist [^3H] rauwolscine ([…]) to membrane preparations of LM(tk-) cells was done in a final volume of 0.25 ml and incubated at 37° C. for 20 min. Nonspecific binding was determined in the presence of 10 μM phentolamine. The reaction was stopped by filtration through GF/B filters using a cell harvester.
The construct involved ligating the full-length containing EcoRI brainstem cDNA fragment from ZapII into the expression vector. The stable cell lines were selected as described above.

[2] = biological target: T2, α1A Human Adrenergic Receptor (Homo sapiens, UniProt P25100); assay: as above
T2 construct: expressed in transfected cells; host or cells: LM(tk-) cells
T2 sequence (P25100 1-572): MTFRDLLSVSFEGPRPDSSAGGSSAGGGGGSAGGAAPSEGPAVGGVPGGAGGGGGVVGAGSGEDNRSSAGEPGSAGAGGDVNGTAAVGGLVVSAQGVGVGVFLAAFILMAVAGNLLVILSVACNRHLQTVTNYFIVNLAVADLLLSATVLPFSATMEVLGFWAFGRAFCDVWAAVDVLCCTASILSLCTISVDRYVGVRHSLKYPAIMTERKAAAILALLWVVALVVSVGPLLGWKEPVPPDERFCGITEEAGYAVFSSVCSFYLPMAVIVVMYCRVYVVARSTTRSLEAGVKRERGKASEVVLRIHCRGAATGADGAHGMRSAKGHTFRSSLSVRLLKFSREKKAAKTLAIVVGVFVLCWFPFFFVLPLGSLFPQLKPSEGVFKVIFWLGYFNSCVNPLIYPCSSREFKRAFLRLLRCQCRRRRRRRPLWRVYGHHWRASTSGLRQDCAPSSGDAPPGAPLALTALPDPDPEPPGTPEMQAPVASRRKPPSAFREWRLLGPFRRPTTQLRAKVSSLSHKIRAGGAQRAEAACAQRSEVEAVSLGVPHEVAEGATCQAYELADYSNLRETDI
Method: as §1, §2
(§3) Stable cell lines were selected as described above.

[3] = biological target: T3, α2C Human Adrenergic Receptor (Homo sapiens, UniProt P18825); format: cell-based; set-up: The entire coding region of α2C (1383 bp), including 2 bp of 5′ UT and 400 bp of 3′ UT; expressed in transfected cells; host or cells: LM(tk-) cells; details: for I.A Alpha-2 C: functional cAMP assay
T3 sequence (P18825 1-462): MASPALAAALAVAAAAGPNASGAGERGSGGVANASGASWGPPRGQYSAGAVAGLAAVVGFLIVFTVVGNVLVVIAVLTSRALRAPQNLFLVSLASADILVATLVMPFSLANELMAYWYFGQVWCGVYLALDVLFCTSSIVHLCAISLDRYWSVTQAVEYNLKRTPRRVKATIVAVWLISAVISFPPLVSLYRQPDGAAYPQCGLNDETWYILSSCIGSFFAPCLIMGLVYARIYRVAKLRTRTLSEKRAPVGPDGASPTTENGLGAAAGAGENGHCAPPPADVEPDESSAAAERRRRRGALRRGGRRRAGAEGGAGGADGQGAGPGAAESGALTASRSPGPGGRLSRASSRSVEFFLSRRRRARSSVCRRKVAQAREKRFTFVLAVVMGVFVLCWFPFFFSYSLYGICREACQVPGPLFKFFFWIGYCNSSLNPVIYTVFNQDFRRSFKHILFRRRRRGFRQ
Method: as §1
The insert housing this coding region was an @ 1.8 kb Ncol/EcoRI human spleen genomic fragment which was end-blunted by either T4 polymerase or Klenow fragment of DNA polymerase. Stable cell lines were selected as described above.
(§4) The agonist activity (expressed as pEC50) was measured as a function of the ability to inhibit the forskolin-stimulated synthesis of cyclic adenosine monophosphate (cAMP). The stably transfected cells were incubated in Ham's F10 with 5 mM theophylline, 10 mM HEPES, 10 μM pargyline, and/or appropriate concentrations of forskolin for 20 min at 37° C. in 5% CO2. The tested compounds were then added to a final concentration of 0.001 nM to 1 μM and incubated for an additional 15 min at 37° C. in 5% CO2. The medium was aspirated and the reaction was stopped by the addition of 100 mM HCl . […] The plates are stored at 4° C. for 15 min and assayed to determine the linear concentration of cAMP. The appropriate dilution is interpolated from the standard curve of cold cAMP. The assessment of cAMP formation is determined by radioimmunoassay (cAMP radioimmunoassay kit; Advanced Magnetics, Cambridge, Mass.). Radioactivity was quantified using a Packard COBRA Auto Gamma counter, equipped with data reduction software.

[4] = biological target: T4, α2B Human Adrenergic Receptor (Homo sapiens, UniProt P18089); assay: Equilibrium competition binding, [3H] rauwolscine, membranes of transfected Y-1 cells
T4 construct: expressed in transfected cells; host or cells: Y-1 cells
T4 sequence (P18089 1-450): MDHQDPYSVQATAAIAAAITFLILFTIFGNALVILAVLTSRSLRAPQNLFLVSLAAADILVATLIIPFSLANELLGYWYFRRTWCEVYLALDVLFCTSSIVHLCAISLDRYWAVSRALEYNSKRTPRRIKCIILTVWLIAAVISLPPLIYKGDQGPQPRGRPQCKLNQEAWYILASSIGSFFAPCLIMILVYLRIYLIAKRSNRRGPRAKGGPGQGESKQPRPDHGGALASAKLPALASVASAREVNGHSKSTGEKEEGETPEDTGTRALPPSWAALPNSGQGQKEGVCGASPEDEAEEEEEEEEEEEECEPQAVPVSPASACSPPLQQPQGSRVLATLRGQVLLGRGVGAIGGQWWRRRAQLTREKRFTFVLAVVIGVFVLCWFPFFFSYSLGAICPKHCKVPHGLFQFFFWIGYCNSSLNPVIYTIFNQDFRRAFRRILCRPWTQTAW
Method: as §1, §3, §2

[5] = biological target: T3, α2C Human Adrenergic Receptor; assay: Equilibrium competition binding, [3H] rauwolscine, membranes of transfected LM(tk-) cells
[6] = biological target: T4, α2B Human Adrenergic Receptor; format: cell-based
Method: as §1, §3, §4

[7] = cloned human receptor, [3H] rauwolscine, read-out: pKi Alpha-2 B (converted)
[8] = inhibition of forskolin-stimulated cAMP, NA: Not Active, read-out: pEC50 Alpha-2 C (converted)

| Structure (SMILES) | melting point | I.A Alpha-2 C [3] | Ki [4] | Ki [5] | other results |
| --- | --- | --- | --- | --- | --- |
| c1nc2ccc(NC3=NCCN3)cc2[nH]1 (as salt: fumarate) [Example 1, 5-(2-Imidazolin-2-ylamino)Benzimidazole] | 196 to 198 °C | – | – | – | – |
| Brc1c(NC2=NCCN2)ccc2nc[nH]c12 (as salt: fumarate) [Example 2, 4-Bromo-5-(2-imidazolin-2-ylamino)Benzimidazole] | 199 to 202 °C | – | – | – | – |
| Clc1c(NC2=NCCN2)ccc2nc[nH]c12 (as salt: fumarate) [Example 3, 4-Chloro-5-(2-imidazolin-2-ylamino)Benzimidazole] | 207 to 208 °C | – | – | – | – |
| Ic1c(NC2=NCCN2)ccc2nc[nH]c12 (as salt: fumarate) [Example 5, 4-Iodo-5-(2-imidazolin-2-ylamino)Benzimidazole] | 256 °C | – | – | – | – |
| CCc1c(NC2=NCCN2)ccc2nc[nH]c12 (as salt: fumarate) [Example 6, 4-Ethyl-5-(2-imidazolin-2-ylamino)Benzimidazole] | 238 to 239 °C | – | – | – | – |
| CCCCc1c(NC2=NCCN2)ccc2nc[nH]c12 (as salt: fumarate) [Example 8, 4-n-Butyl-5-(2-imidazolin-2-ylamino)Benzimidazole] | 96 °C | – | – | – | – |
| Clc1cccc(Cl)c1N=C1NCCN1 [Clonidine, reference compound] | – | – | – | – | pKi Alpha-1 B [1]: 5.62; Ki ([2]; cloned human receptor, [3H] prazosin, read-out: pKi Alpha-1 A (converted)): 0.513 µM |
| CCc1c(NC2=NCCN2)ccc2nc[nH]c12 [Example 6, 4-Ethyl-5-(2-imidazolin-2-ylamino)Benzimidazole] | – | 1.00 | 0.0224 µM | 0.0479 µM | EC50 [3]: 0.00398 µM; EC50 [6]: 0.0224 µM; I.A Alpha-2 B [6]: 1.00 |
| CCCn1cnc2cc(NC3=NCCN3)ccc21 [Example 13, 1-Propyl-5-(2-imidazolin-2-ylamino)Benzimidazole] | – | – | 0.363 µM | 0.398 µM | Ki ([1]; read-out: pKi Alpha-1 B (converted)): 93.3 µM; Ki [2]: 10.5 µM |
| CC(C)n1cnc2c(I)c(NC3=NCCN3)ccc21 [Example 19, 1-lsopropyl-4-Iodo-5-(2-imidazolin-2-ylamino)Benzimidazole] | – | – | – | 0.129 µM | Ki [4, 7]: 0.214 µM |
| Brc1c(NC2=NCCN2)ccc2c1ncn2CC1CCCCC1 [Example 30, 1-Cyclohexylmethyl-4-bromo-5-(2-imidazolin-2-ylamino)Benzimidazole] | – | – | – | 0.309 µM | Ki [4, 7]: 0.166 µM |
| COc1cccc(Cn2cnc3c(Br)c(NC4=NCCN4)ccc32)c1 [Example 37, 1-(3-Methoxybenzyl)-4-bromo-5-(2-imidazolin-2-ylamino)Benzimidazole] | – | 0.50 | – | 0.117 µM | EC50 [3, 8]: 0.0525 µM; Ki [4, 7]: 0.0813 µM |
| Brc1c(NC2=NCCN2)ccc2nc(C3CC3)[nH]c12 [Example 47, 2-Cyclopropyl-4-bromo-5-(2-imidazolin-2-ylamino)Benzimidazole] | – | – | 0.0447 µM | 0.224 µM | EC50 [3]: 0.0457 µM; EC50 [6]: 0.115 µM |
| Cc1cc2nc[nH]c2cc1NC1=NCCN1 [Example 49, 6-Methyl-5-(2-imidazolin-2-ylamino)Benzimidazole] | – | 1.00 | 0.0363 µM | – | – |
| Brc1cc(NC2=NCCN2)cc2[nH]cnc12 [Example 51, 7-Bromo-5-(2-imidazolin-2-ylamino)Benzimidazole] | – | 1.00 | 0.0275 µM | 0.123 µM | EC50 [3]: 0.00427 µM; EC50 [6]: 0.0891 µM; I.A Alpha-2 B [6]: 0.60 |
| Cc1cc(NC2=NCCN2)cc2[nH]cnc12 [Example 52, 7-Methyl-5-(2-imidazolin-2-ylamino)Benzimidazole] | – | 1.00 | 0.0776 µM | – | EC50 [6]: 0.0724 µM; I.A Alpha-2 B [6]: 0.80 |
| CCc1cc(NC2=NCCN2)cc2[nH]cnc12 [Example 55, 7-Ethyl-5-(2-imidazolin-2-ylamino)Benzimidazole] | – | 0.80 | 0.209 µM | 0.427 µM | EC50 [3, 8]: 0.162 µM |
| c1ccc(-c2cc(NC3=NCCN3)cc3[nH]cnc23)cc1 [Example 57, 7-Phenyl-5-(2-imidazolin-2-ylamino)Benzimidazole] | – | – | – | 0.135 µM | EC50 [3, 8]: 0.0151 µM; Ki [4, 7]: 0.0603 µM; I.A Alpha-2 B ([6]; functional cAMP assay): 1.00; EC50 ([6]; inhibition of forskolin-stimulated cAMP, NA: Not Active, read-out: pEC50 Alpha-2 B (converted)): 8.51 µM |
